This passage reports Activity results from ChEMBL document CHEMBL1128652, “Synthesis of the macrolide antibiotic, oxolide” (Bioorg Med Chem Lett, 1995).

In the assay the test system is Haemophilus influenzae. The assay can be described thus: Antibacterial activity against gram-negative bacteria, Haemophilus influenzae; A - found to be active. The format is functional, organism-based.

Structures are written as SMILES. Active and inactive are the calls of the source. The rule behind the calls is not given here.

As for `CC[C@H]1OC(=O)[C@H](C)[C@@H](O[C@H]2C[C@@](C)(OC)[C@@H](O)[C@H](C)O2)[C@H](C)[C@@H](O[C@@H]2O[C@H](C)C[C@H](N(C)C)[C@H]2O)[C@@](C)(O)C[C@@H](C)[C@@H]2O[C@]1(C)[C@@H](N)[C@H]2C`, the outcome was Active.
